Experimental data: the supplement of paper PMC10883282

Key:
Test in all cases: relative viability vs DMSO control (72 h) (fraction); higher = more viable cells
[1] = tested on: G401
Outline: (§1)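 Relative viability was measured with ATPLite and expressed as percent growth, averaged across up to triplicate wells. Sarcoma cell lines had been seeded in 384-well plates to reach 80–90% confluence, dosed after 24 h, and incubated 72 h at 37 °C, 5% CO2. All data were rescaled on a scale where 1 is full and 0 is none.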

[2] = tested on: HT1080
Outline: as §1

[3] = tested on: KHOS-240S
Outline: as §1

[4] = tested on: MES-SA
Outline: as §1

[5] = tested on: RD-ES
Outline: as §1

[6] = tested on: RD
Outline: as §1

[7] = tested on: SK-ES-1
Outline: as §1

[8] = tested on: SK-LMS-1
Outline: as §1

[9] = tested on: SW1353
Outline: as §1

[10] = tested on: SW982
Outline: as §1

[11] = tested on: SYO-1
Outline: as §1

[12] = tested on: VA-ES-BJ
Outline: as §1

C1=N/C2=N/c3ccc(OCCN4CCCC4)c(c3)COC/C=C/COCc3cccc(c3)C(=C1)N2 [Pacritinib]
Settings	relative viability
[1], 0.00017 µM	1.05
[1], 0.00051 µM	1.09
[1], 0.00152 µM	1.02
[1], 0.00457 µM	1.06
[1], 0.01372 µM	1.03
[1], 0.04115 µM	1
[1], 0.1235 µM	0.966
[1], 0.3704 µM	0.868
[1], 1.111 µM	0.552
[1], 3.333 µM	0.044
[1], 10 µM	0.0119
[2], 0.00017 µM	1.09
[2], 0.00051 µM	1.07
[2], 0.00152 µM	1.09
[2], 0.00457 µM	1.09
[2], 0.01372 µM	1.08
[2], 0.04115 µM	1.09
[2], 0.1235 µM	1.08
[2], 0.3704 µM	1.12
[2], 1.111 µM	0.925
[2], 3.333 µM	0.169
[2], 10 µM	0.101
[3], 0.00017 µM	1.05
[3], 0.00051 µM	1.08
[3], 0.00152 µM	1.08
[3], 0.00457 µM	1.08
[3], 0.01372 µM	1.09
[3], 0.04115 µM	1.06
[3], 0.1235 µM	1.06
[3], 0.3704 µM	0.985
[3], 1.111 µM	0.5636
[3], 3.333 µM	0.0954
[3], 10 µM	0.108
[4], 0.00017 µM	0.966
[4], 0.00051 µM	0.9661
[4], 0.00152 µM	0.953
[4], 0.00457 µM	0.951
[4], 0.01372 µM	0.938
[4], 0.04115 µM	0.936
[4], 0.1235 µM	0.937
[4], 0.3704 µM	0.794
[4], 1.111 µM	0.46
[4], 3.333 µM	0.0101
[4], 10 µM	0.00167
[5], 0.00017 µM	1
[5], 0.00051 µM	1.03
[5], 0.00152 µM	1.04
[5], 0.00457 µM	1.01
[5], 0.01372 µM	1.03
[5], 0.04115 µM	1
[5], 0.1235 µM	0.967
[5], 0.3704 µM	0.821
[5], 1.111 µM	0.437
[5], 3.333 µM	0.109
[5], 10 µM	0.165
[6], 0.00017 µM	1.08
[6], 0.00051 µM	1.1
[6], 0.00152 µM	1.12
[6], 0.00457 µM	1.11
[6], 0.01372 µM	1.13
[6], 0.04115 µM	1.111
[6], 0.1235 µM	1.07
[6], 0.3704 µM	0.823
[6], 1.111 µM	0.462
[6], 3.333 µM	0.158
[6], 10 µM	0.144
[7], 0.00017 µM	1.07
[7], 0.00051 µM	1.06
[7], 0.00152 µM	1.06
[7], 0.00457 µM	1.02
[7], 0.01372 µM	1.07
[7], 0.04115 µM	0.989
[7], 0.1235 µM	0.945
[7], 0.3704 µM	0.593
[7], 1.111 µM	0.222
[7], 3.333 µM	0.00983
[7], 10 µM	0.00643
[8], 0.00017 µM	1.1
[8], 0.00051 µM	1.136
[8], 0.00152 µM	1.08
[8], 0.00457 µM	1.085
[8], 0.01372 µM	1.08
[8], 0.04115 µM	1.08
[8], 0.1235 µM	1.1
[8], 0.3704 µM	1.116
[8], 1.111 µM	0.959
[8], 3.333 µM	0.539
[8], 10 µM	0.2186
[9], 0.00017 µM	1.06
[9], 0.00051 µM	1.091
[9], 0.00152 µM	1.08
[9], 0.00457 µM	1.03
[9], 0.01372 µM	1
[9], 0.04115 µM	0.981
[9], 0.1235 µM	0.966
[9], 0.3704 µM	0.882
[9], 1.111 µM	0.775
[9], 3.333 µM	0.178
[9], 10 µM	0.0164
[10], 0.00017 µM	1.04
[10], 0.00051 µM	1.08
[10], 0.00152 µM	1.12
[10], 0.00457 µM	1.09
[10], 0.01372 µM	1.09
[10], 0.04115 µM	1.11
[10], 0.1235 µM	0.923
[10], 0.3704 µM	0.573
[10], 1.111 µM	0.296
[10], 3.333 µM	0.157
[10], 10 µM	0.153
[11], 0.00017 µM	1.01
[11], 0.00051 µM	1.01
[11], 0.00152 µM	0.997
[11], 0.00457 µM	0.985
[11], 0.01372 µM	1.01
[11], 0.04115 µM	0.952
[11], 0.1235 µM	0.932
[11], 0.3704 µM	0.748
[11], 1.111 µM	0.244
[11], 3.333 µM	0.0093
[11], 10 µM	0.00973
[12], 0.00017 µM	1.11
[12], 0.00051 µM	1.11
[12], 0.00152 µM	1.09
[12], 0.00457 µM	1.07
[12], 0.01372 µM	1.06
[12], 0.04115 µM	1.08
[12], 0.1235 µM	1.02
[12], 0.3704 µM	0.855
[12], 1.111 µM	0.149
[12], 3.333 µM	0.0927
[12], 10 µM	0.0817
